The values below come from patent publication US20100150844A1, “USE OF 8-QUINOLINOL AND ITS ANALOGS TO TARGET CANCER STEM CELLS” (The Johns Hopkins University, priority 2006, published 2010).

Entries after “also recorded” stand apart in the source; their conditions may differ. Read-outs that look alike come from different tables or passages of the source. Non-standard residues stand in square brackets, D forms with d. Residues, ends and D or L forms follow the SMILES beside them. *: point of attachment. Nle = CCCC[C@H](N)C(=O)O; Cbz = O=C(OCc1ccccc1)*

Data set [1] concerns MCF7 sphere cells. In words: Cell proliferation assay (MTT), MCF7 sphere cells. It is filed as cell-based, human. How it is done:
(§1) FIG. 2. Susceptibility of MCF7 sphere cells to common anticancer drugs compared with MCF7 cells. Single MCF7 and MCF7 sphere cells were inoculated into 96 well plates at a concentration of 5000 cells per well. After overnight culture, cells were subject to selected clinical drug treatment at the indicated dose for three days. Cell proliferation was determined by MTT assay.
MCF7 and MCF7 sphere cell culture. Human breast cancer cell line MCF7 cells, MDA-MB-435 cells were obtained from ATCC (American Type Culture Collection). Cells were grown in Dulbecco's Modified Eagle's Medium (DMEM) (Invitrogen) supplemented with 10% fetal bovine serum (FBS) (Invitrogen), 100 units/ml penicillin and 100 ug/ml streptomycin (Invitrogen), in a 37° C. incubator containing 5% CO2. To isolate and culture MCF7 sphere cells, SP cells were sorted based on protocol shown below. Sphere cell culture was performed according to published protocol with modifications^28-30. Briefly, single cells were plated in ultralow attachment plates (Corning, N.Y.) at a density of 20,000 viable cells/mL in primary culture and 1000 cells/mL in passages. Cells were grown in a serum-free mammary epithelial growth medium without bovine pituitary extract (MEGM, BioWhittaker), but supplemented with serum substitute B27 (Invitrogen), 20 ng/mL, Epidermal Growth Factor (EGF), 20 ng/mL, and 20 ng/mL basic fibroblast growth factor (bFGF) (BD Biosciences). In order to passage sphere cells, spheres were collected into 15 ml conic tubes and allowed to settle for 15 minutes. Supernatant was removed. Sphere cells were dissociated enzymatically with 0.05% trypsin, 0.5 mM EDTA (Invitrogen) and mechanically by a glass Pasteur pipette. The cells obtained from dissociation were passed through a 40-μm sieve and analyzed microscopically for single cells and subjected to the experiments below.
(§2) Cell proliferation assay. […] Each concentration was repeated three times.

The conditions of data set [2]: tail vein, 20 mg/kg, nude mice. How it is done:
(§3) FIGS. 5A-5F. […] Experiment was performed as described in FIG. 3 and Materials and Methods. B: Structure of NSC125034 and 8Q. […] D: In vivo effect of 8Q (4 mg/Kg) by intratumor injection. […] Mice were treated twice weekly for 3 weeks. Tumor sizes were measured weekly. E: In vivo effect of 8Q (20 mg/Kg) by tail vein injection on two different types of breast cancer cell lines, MCF7 (estrogen dependent, xenograft model reflect the early-stage breast malignancy) and MDA-MB435 (estrogen […], xenograft model reflect the later-stage breast malignancy). Mice were treated twice weekly for 4 weeks. (1) MCF7 xenograft (2) MDA-MB435 xenograft. F: Total body weight of individual mouse in the tail vein injection experiment was determined weekly and the average body weight was plotted.
(§4) Antitumor activity in xenograft model. […] Stock solutions of paclitaxel alone, 8-Quinolinol (8Q) alone or in combination with paclitaxel were prepared by dissolving the drugs in a vehicle solution (EtOH:cremophor, 50:50 v/v). Vehicle or paclitaxel alone, 8Q alone and 8Q in combination with paclitaxel stock solution were mixed with saline (10:90 v/v). For intratumor injection, the 8Q dose was 4 mg/kg, given twice weekly for three weeks. […] The tumor volumes were determined by measuring the length (l) and the width (w) and calculating the volume (V=lw^2/2). […]

The subject of data set [3] is MCF7 xenograft. Particulars: tail vein injection, 8Q 20 mg/kg twice weekly for 4 weeks, FIG. 5E(1). How it is done: as §3, §4
For data set [4] the following is noted: in words; solvent DMSO or ethanol.
Data set [5] relates to MDA-MB-435 tumor. In words: Antitumor activity in nude mouse xenograft model, MDA-MB-435. It is filed as in vivo. How it is done:
as §3, §4

For data set [6] the following is noted: rat, U.S. National Toxicology Program acute toxicity studies; cited from earlier work.
For data set [7] the following is noted: mouse, U.S. National Toxicology Program acute toxicity studies; cited from earlier work.
Data set [8] relates to MCF7 cells. In words: Cell proliferation assay (MTT), MCF7 parental cells. It is filed as cell-based, human. How it is done: as §1, §2
In data set [9] the test system is MCF7 SP cells. Briefly: cells. Particulars: Homo sapiens, MCF7, read-out: growth inhibition. How it is done:
(§5) To identify and sort SP and non-SP fractions, cells were washed with phosphate buffered saline (PBS) and detached from the culture dish with trypsin and EDTA, pelleted by centrifugation, and resuspended in 37° C. DMEM containing 2% FBS at 1×10^6 cell/ml. Cell staining was performed according to the protocol originally developed by Goodell et al with slight modification^46. […] Following staining, the cells were spun down and resuspended in Hanks'Balanced Salt Solution (HBSS) (Invitrogen) containing 1 μg/ml propidium iodide and maintained at 4° C. for flow cytometry analysis/sorting. Cell analysis and sorting were performed on a MoFlo cytometer (Dako Cytomation, Fort Collins, Colo. USA) equipped with a Coherent Enterprise II laser emitting MLUV at 351 nm and blue 488 nm lines.
(§6) Cell proliferation assay. To test the sensitivity of MCF7 and MCF7 sphere cells to specific compounds, both MCF7 and MCF7 sphere single cells were seeded at 3×10^4 cells/ml in 96-well plates. After overnight incubation, serial concentrations of tested compounds were added. Each concentration was repeated three times. These cells were incubated in a humidified atmosphere with 5% CO2 for 3 days. […] The medium was removed and formazan was dissolved in DMSO and the optical density was measured at 590 nm using a Bio-assay reader (Bio-Rad, USA).

Data set [10] has as its system MCF7 non-SP cells. Briefly: cells. The conditions noted are these: Homo sapiens, MCF7, read-out: growth inhibition. How it is done:
as §5, §6

The test system of data set [11] is NF-κB. In words: Trans-AM NF-κB assay on nuclear extracts of MCF7 sphere cells. It is filed as cell-based, human. Particulars: 5 μM, 24 hours. How it is done:
(§7) FIGS. 3A-3B. A: Susceptibility of MCF7 and MCF7 sphere cells PI3K pathway inhibitor, rapamycin and NF-κB pathway inhibitors, PTL and PDTC at indicated doses. Experiment was performed as described in FIG. 2 and Materials and Methods. B: Inhibition of NF-κB activity of MCF7 and MCF7 sphere cells after treatment with PTL and PDTC at indicated concentrations. Cells were treated with these compounds at indicated doses for 24 hours. Nuclear extract was prepared from control and treated cells. The quantification of NF-κB activation was performed according to product manual. Nuclear extract preparation. […] After the nuclear lysates were centrifuged, supernatants were collected for quantification of NF-κB activation. The protein concentrations in the supernatants were determined using the BCA protein assay kit (Pierce, Rockford, Ill.). Quantification of NF-κB activation. Trans-AM NF-κB assay, an enzyme-linked immunosorbent assay (ELISA)-based method (Trans-AM NF-κB; Active Motif, Carlsbad, Calif.) was used for NF-κB activity quantification according to the manufacturer's instruction. Briefly, cell nuclear extracts were placed in 96-well plates coated with an oligonucleotide containing the NF-κB consensus sequence, and the presence of active NF-κB was detected by using antibodies specific for p50 subunits that are not complexed to IκB and thus able to bind the consensus sequence. […]

The subject of data set [12] is NF-κB. In words: Trans-AM NF-κB assay on nuclear extracts of MCF7 cells. It is filed as cell-based. The conditions noted are these: Homo sapiens, 24 hours. How it is done:
as §7

[13] abbreviates: comparison sphere versus parental cells, in words.

Take `CCCC[C@@H](C=O)NC(=O)[C@H](CC(C)C)NC(=O)[C@H](CC(C)C)NC(=O)OCc1ccccc1` [GSI1] (Cbz-Leu-Leu-[Nle]-aldehyde): the “growth inhibition on MCF7 sphere cells compared with MCF7 cells” value (shortened to “growth inhibition … compared with MCF7 cells”) in [1] (setting [13]) was “did not inhibit MCF7 sphere cells more than the MCF7 parental cells; also recorded: no higher growth inhibitor ability on MCF7 sphere cells than MCF7 cells”.

For `Oc1cccc2cccnc12` [8Q, 8-quinolinol], the “toxicity judged by apparent symptoms and body weight loss” value in data set [2] is given as “did not show significant toxicity”. Also, the tumor growth inhibition result in [3] is listed as “significantly inhibited tumor growth”; in data set [5] (intratumor injection, 8Q 4 mg/kg twice weekly for 3 weeks, FIG. 5D), “significantly inhibited tumor growth”. In addition, the inhibition (commonly how much of the control response was suppressed) at 5 µM in [1] (Homo sapiens, 72 h, 5 μM, three day treatment, MCF7 sphere cells, read-out: growth inhibition) was determined as 86%; in data set [8] (Homo sapiens, MCF7, 72 h, read-out: growth inhibition), 30%; in [9], 84.7%; in [10] it was 71.9%. Further, in [1] (setting [13]), the “growth inhibition … compared with MCF7 cells” value is “preferentially inhibit the cancer stem cells over bulk cancer cells”. Also, in [4], the solubility result is listed as “Ethanol soluble”. For the same molecule, the “LD50 (oral)” value is 1200 mg/kg in data set [6] and 20000 mg/kg in data set [7].

Turning to `CC(=O)O[C@H]1C(=O)[C@@]2(C)[C@H]([C@H](OC(=O)c3ccccc3)[C@]3(O)C[C@H](OC(=O)[C@H](O)[C@@H](NC(=O)c4ccccc4)c4ccccc4)C(C)=C1C3(C)C)[C@]1(OC(C)=O)CO[C@@H]1C[C@@H]2O` [paclitaxel], the inhibition at 0.25 µM in [1] (Homo sapiens, 72 h, 0.25 uM, 3 days, MCF7 sphere cells, read-out: growth inhibition) worked out at 6.1%; in [8] (Homo sapiens, 72 h, 0.25 uM, 3 days, MCF7 parental cells, read-out: growth inhibition) it was 44.5%. Also, the tumor growth inhibition result in data set [5] (positive control, paclitaxel 15 mg/kg) is listed as “inhibited the tumor growth as expected”.

For `S=C(S)N1CCCC1` [PDTC, pyrrolidine dithiocarbamate], the “decrease of NF-κB activity” value in [11] is given as 61.8%. Besides, in data set [1] (Homo sapiens, 1 uM, MCF7 sphere cells, read-out: growth inhibition), the inhibition at 1 µM is 50.8%. Further, the “growth inhibition … compared with MCF7 cells” value in data set [1] (setting [13]) was “inhibit MCF7 sphere cells more strongly than the parental MCF7 cells; also recorded: very marked growth inhibition on MCF7 sphere cells compared to MCF7 cells”. In data set [12], this molecule gave an inhibition at 5 µM of 33.6%. The growth inhibition result in [8] (1 uM, MCF7 cells) was “no growth inhibition effects”.

As to `CC1=C2C[C@H]3[C@@H](CC=C4C[C@@H](O)CC[C@@]43C)[C@@H]2CC[C@]12O[C@@H]1C[C@H](C)CN[C@H]1[C@H]2C` [cyclopamine], the “growth inhibition … compared with MCF7 cells” value in data set [1] is listed as “did not inhibit MCF7 sphere cells more than the MCF7 parental cells; also recorded: no higher growth inhibitor ability on MCF7 sphere cells than MCF7 cells”.

B1: DKK1: Wnt pathway inhibitor (protein, UniProt O94907 32-266, looked up)
Dickkopf-related protein 1: TLNSVLNSNAIKNLPPPLGGAAGHPGSAVSAAPGILYPGGNKYQTIDNYQPYPCAEDEECGTDEYCASPTRGGDAGVQICLACRKRRKRCMRHAMCCPGNYCKNGICVSSDQNHFRGEIEETITESFGNDHSTLDGYSRRTTLSSKMYHTKGQEGSVCLRSSDCASGLCCARHFWSKICKPVLKEGQVCTKHRRKGSHGLEIFQRCYCGEGLSCRIQKDHHQASNSSRLHTCQRH
Take B1: the “growth inhibition … compared with MCF7 cells” value in data set [1] (setting [13]) was “no higher growth inhibitor ability on MCF7 sphere cells than MCF7 cells”; in [1] (comparison sphere versus parental cells, in words, listed as DKKI) it was “did not inhibit MCF7 sphere cells more than the MCF7 parental cells”.
